Reference: paper PMC6241247, “Development and Application of an UHPLC-MS/MS Method for Comparative Pharmacokinetic Study of Eight Major Bioactive Components from Yin Chen Hao Tang in Normal and Acute Liver Injured Rats” (Evidence-based Complementary and Alternative Medicine : eCAM, 2018)

Columns and labels:
[1] = Plasma pharmacokinetics after oral administration of YCHT in model (CCl4-induced acute liver injury) rats, UHPLC-MS/MS
Protocol: The quality control (QC) and plasma samples were analyzed by an Agilent 6470 triple quadrupole LC–MS system (Agilent Technologies, Inc., Santa Clara, CA, USA), which consists of an Agilent 1290 Infinity II system connected to a triple quadrupole MS analyzer with an Agilent Jet Stream technologies electrospray ionization (ESI) interface. The Agilent 1290 LC system is equipped with degasser (G7116B), high speed pump (G7120A) and multisampler (G7167B). The samples (2 μL) were injected into the LC system. A MassHunter workstation was applied for LC–MS control and data acquisition.
Chromatographic separation was conducted with a CAPCELL PAK ADME (2.1 mm × 100 mm, 3 μm; Shiseido Co., Ltd., Tokyo, Japan). The mobile phase included 0.1% formic acid (A) and methanol (B), and the flow rate was 0.3 mL/min. Iridoid glycosides and anthraquinones were detected in the isocratic elution, which was kept 80% B for 5.5 min in the negative mode. The others were separated in the positive mode with another gradient program, which was maintained at 45% B for 0.5 min, then increased to 95% B in 2 min, and maintained at 95% B until 4.5 min, and the post time is 2 min.
The optimal parameters for the ESI interface were as follows: nebulizer, 45 psi; dry gas, 10 L/min; dry temp, 350°C; sheath gas, 11 L/min; sheath gas temp, 350°C; capillary voltage, 4000 V (in the positive mode) and 3500 V (in the negative mode); and delta EMV, 200 V. The MS parameters for iridoid glycosides and anthraquinones were improved in the negative mode, and the MS parameters for the other analytes were improved in positive mode.
The animals were randomly divided into the control group (n = 6) and the model group (n = 6): the model rats, i.e., acute liver injury rats, were induced by intraperitoneal injections of CCl4 diluted with olive oil (1:1, v/v) at a dose of 1.5 mL/kg.bw every day for three days, and the rats in the control group were administered with olive oil.
After being thawed at room temperature, 100 μL plasma was put in a 1.5 mL centrifuge tube, and then 100 μL IS solution and 300 μL acetonitrile was added. After the mixture was vortexed for 1 min, it was centrifuged at 12000 rpm for 10 min at 4°C to precipitate the protein. Then the supernatant was transferred to another clean centrifuge tube, and evaporated to dryness under nitrogen stream, the residue was reconstituted in 50 μL methanol-water (1:1, v/v). After centrifuging at 12000 rpm for 10 min at 4°C again, a 2 μL aliquot of supernatant was injected for LC–MS/MS analysis.
The validated method was used for the pharmacokinetic study. Standard diet was withheld over night before oral administration of YCHT, but with free access to water. And YCHT (60 g/kg) was administered to the rats by gastric perfusion, equivalent to 10.09 mg/kg of scoparone, 0.49 mg/kg scopoletin, 17.16 mg/kg of geniposide, 9.86 mg/kg of rhein, 2.66 mg/kg of aloe-emodin, 2.24 mg/kg of chrysophanol, 0.83 mg/kg of emodin, and 0.58 mg/kg of physcion.
A series of blood samples (0.3 mL) were collected from the rats' postorbital venous plexuses at 0 (pre-dose), 5, 10, 15, 30, 45, 60, 90, 120, 240, 480, 600, 720 and 1440 min, and put into heparinized tubes. The heparinized plasma was immediately centrifuged to separate at 3000 g for 10 min and stored at −80°C before experiments. The analytes' concentrations in plasma were determined by LC–MS/MS methods described above.
The plasma concentrations were expressed as arithmetic mean ± standard deviation (SD). And the mean concentration–time curves were calculated and plotted by DAS (version 3.0, Bio Guider Co., Shanghai, China), and the PK parameters consist of elimination half-life (t1/2), area under the plasma concentration-time curve (AUC), and mean residence time (MRT). The maximum plasma concentrations (Cmax) and corresponding peak time (Tmax) were obtained from the observed data directly.

[2] = Plasma pharmacokinetics after oral administration of YCHT in control (normal) rats, UHPLC-MS/MS; assay type: in vivo, Sprague-Dawley rats; details: for CL/F / Cmax / MRT inf / MRT last / Tmax / half-life: Sprague-Dawley
Description: The validated method was used for the pharmacokinetic study.
P<0.05 represented statistical significance.

P-glycoprotein (P-gp) = test system: P-glycoprotein (P-gp); set-up: method as in PMID 25776492, PMID 26121397; details: cited from earlier work
[3] = Fr = (AUCmodel/AUCcontrol)∗100%, oral YCHT 60 g/kg
[4] = Sprague-Dawley, rat, in vivo, po, 60 g/kg
[5] = model (CCl4 liver injured) rats, oral YCHT 60 g/kg, plasma, n = 6
[6] = control rats, oral YCHT 60 g/kg, plasma, n = 6
[7] = rat, in vivo, control rats, oral YCHT 60 g/kg, plasma, n = 6, read-out: CLz/F (converted)
[8] = rat, in vivo, control rats, oral YCHT 60 g/kg, plasma, n = 6, read-out: Cmax
[9] = rat, in vivo, control rats, oral YCHT 60 g/kg, plasma, n = 6, read-out: MRT0–t
[10] = rat, in vivo, control rats, oral YCHT 60 g/kg, plasma, n = 6, read-out: MRT0–∞
[11] = rat, in vivo, control rats, oral YCHT 60 g/kg, plasma, n = 6, read-out: Tmax
[12] = rat, in vivo, control rats, oral YCHT 60 g/kg, plasma, n = 6, read-out: t 1/2 (converted)
[13] = Sprague-Dawley, rat, in vivo, po
[14] = Sprague-Dawley, rat, plasma, po, 60 g/kg

Compound	Fr (relative bioavailability) [1, 3] [%]	CL/F [1, 4] [mL/min/kg]	Cmax [1, 4] [ng/mL]	MRT inf [1, 4] [h]	MRT last [1, 4] [h]	Tmax [1, 4] [h]	half-life [1, 4] [h]	AUC0–t [1, 5]	AUC0–∞ [1, 5]	CL/F ([2]; rat, in vivo, po, 60 g/kg) [mL/min/kg]	Cmax ([2]; rat, in vivo, po, 60 g/kg) [ng/mL]	MRT inf ([2]; rat, in vivo, po, 60 g/kg) [h]	MRT last ([2]; rat, in vivo, po, 60 g/kg) [h]	Tmax ([2]; rat, in vivo, po, 60 g/kg) [h]	half-life ([2]; rat, in vivo, po, 60 g/kg) [h]	AUC0–t [2, 6] [ug/L∗h]	AUC0–∞ [2, 6] [ug/L∗h]	CL/F [2, 7] [mL/min/kg]	MRT last [2, 9] [h]	MRT inf [2, 10] [h]	further results
O=C(O)c1cc(O)c2c(c1)C(=O)c1cccc(O)c1C2=O [Rhein]	268.45	31.2	1760 ± 140	4.67 ± 0.65	4.38 ± 0.41	0.54 ± 0.19	3.62 ± 1.97	5453.29 ± 1202.14∗∗ ug/L∗h	5518.78 ± 1256.46∗∗ ug/L∗h	82	664 ± 50.3	5.38 ± 0.49	4.79 ± 0.36	0.33 ± 0.13	4.64 ± 2.14	2031.40 ± 385.58	2074.39 ± 387.77				
O=C1c2cccc(O)c2C(=O)c2c(O)cc(CO)cc21 [Aloe-emodin]	281.30	283	36.7 ± 3.09	4.07 ± 0.4	3.68 ± 0.34	0.58 ± 0.3	1.98 ± 0.71	153.62 ± 18.13∗∗ ug/L∗h	158.71 ± 19.26∗∗ ug/L∗h							54.61 ± 6.50	60.86 ± 6.68	737	3.34 ± 0.12	4.33 ± 0.84	Cmax [2, 8]: 15.2 ± 1.68 ng/mL; Tmax [2, 11]: 0.54 ± 0.19 h; half-life [2, 12]: 2.26 ± 1.15 h
COc1cc2ccc(=O)oc2cc1O [Scopoletin]	123.38	1100	3.34 ± 1.19	5.56 ± 0.63	4.81 ± 0.43	0.13 ± 0.05	2.2 ± 0.82	7.23 ± 1.84 ug/L∗h	7.83 ± 2.00 ug/L∗h	1180	3.53 ± 0.67	6.9 ± 4.2	4.4 ± 0.44	0.19 ± 0.04	3.62 ± 3.85	5.86 ± 0.50	7.41 ± 2.53				P-gp substrate (P-glycoprotein (P-gp)): not P-gp substrates
Cc1cc(O)c2c(c1)C(=O)c1cccc(O)c1C2=O [Chrysophanol]		257	37.6 ± 6.51	4.2 ± 0.77	3.43 ± 0.4	0.88 ± 0.35	3.12 ± 1.74			363	34.5 ± 4.99	3.34 ± 0.21	2.93 ± 0.16	0.63 ± 0.26	2 ± 0.23						Fr (relative bioavailability) [1, 13]: 142.23%; AUC0–t ([1]; rat, in vivo, po, 60 g/kg): 141.29 ± 27.92∗∗ ug/L∗h; AUC0–∞ ([1]; rat, in vivo, po, 60 g/kg): 148.47 ± 25.04∗∗ ug/L∗h; AUC0–t ([2]; rat, in vivo, po, 60 g/kg): 99.34 ± 10.12 ug/L∗h; AUC0–∞ ([2]; rat, in vivo, po, 60 g/kg): 103.57 ± 10.09 ug/L∗h
COc1cc2ccc(=O)oc2cc1OC [Scoparone]	227.64							5196.54 ± 513.37∗∗ ug/L∗h	5197.06 ± 513.33∗∗ ug/L∗h							2282.77 ± 390.03	2347.92 ± 428.69				CL/F [1, 14]: 32.7 mL/min/kg; Cmax [1, 14]: 1770 ± 107 ng/mL; MRT inf [1, 14]: 3.95 ± 0.26 h; MRT last [1, 14]: 3.94 ± 0.26 h; Tmax [1, 14]: 0.33 ± 0.13 h; half-life [1, 14]: 1.58 ± 0.13 h; AUC in model rats higher than in normal rats ([1]; model vs normal rats, oral YCHT): approximately 2 fold; CL/F ([2]; rat, control rats, oral YCHT 60 g/kg, plasma, n = 6, read-out: CLz/F (converted)): 73.7 mL/min/kg; Cmax ([2]; rat, control rats, oral YCHT 60 g/kg, plasma, n = 6, read-out: Cmax): 939 ± 112 ng/mL; MRT last ([2]; rat, control rats, oral YCHT 60 g/kg, plasma, n = 6, read-out: MRT0–t): 3.19 ± 0.16 h; MRT inf ([2]; rat, control rats, oral YCHT 60 g/kg, plasma, n = 6, read-out: MRT0–∞): 3.51 ± 0.14 h; Tmax ([2]; rat, control rats, oral YCHT 60 g/kg, plasma, n = 6, read-out: Tmax): 0.54 ± 0.1 h; half-life ([2]; rat, control rats, oral YCHT 60 g/kg, plasma, n = 6, read-out: t 1/2 (converted)): 2.14 ± 0.71 h
COc1cc(O)c2c(c1)C(=O)c1cc(C)cc(O)c1C2=O [Physcion]	213.68	211	9.99 ± 2.86	5.26 ± 1.3	4.07 ± 0.4	2.58 ± 1.11	3.06 ± 2.37	44.98 ± 13.92∗∗ ug/L∗h	48.47 ± 12.74∗∗ ug/L∗h	450	8.45 ± 1.61	3.54 ± 0.49	2.88 ± 0.25	1.25 ± 0.27	2.65 ± 0.99	21.05 ± 4.04	22.44 ± 5.54				
Cc1cc(O)c2c(c1)C(=O)c1cc(O)cc(O)c1C2=O [Emodin]		1050	3.89 ± 0.89	6.64 ± 0.78	4.83 ± 0.25	0.17 ± 0.05	3.64 ± 0.79	11.66 ± 2.70 ug/L∗h	13.49 ± 2.43 ug/L∗h							10.41 ± 0.83	12.06 ± 1.53	1160	4.94 ± 0.26	6.65 ± 1.99	Fr (relative bioavailability) [1, 13]: 112.01%; P-gp substrate (P-glycoprotein (P-gp)): not P-gp substrates; Cmax [2, 8]: 3.51 ± 0.59 ng/mL; Tmax [2, 11]: 0.2 ± 0.17 h; half-life [2, 12]: 3.33 ± 1.67 h
COC(=O)C1=CO[C@@H](O[C@@H]2O[C@H](CO)[C@@H](O)[C@H](O)[C@H]2O)[C@@H]2C(CO)=CC[C@H]12 [Geniposide]	257.67	55.7	1860 ± 109	5.99 ± 0.61	4.68 ± 0.57	0.58 ± 0.2	6.59 ± 2.46	5000.36 ± 755.13∗∗ ug/L∗h	5223.83 ± 746.92∗∗ ug/L∗h							1940.63 ± 210.72	1958.65 ± 206.96	147	4.57 ± 0.41	4.8 ± 0.47	Cmax ([2]; rat, in vivo, 60 g/kg, normal group, oral YCHT, read-out: Cmax): 751 ± 47.7 ng/mL; Tmax [2, 11]: 0.33 ± 0.13 h; half-life [2, 12]: 3.55 ± 0.38 h
